“And” between values parts separate entries of the source, which are not always exact repeats. Equal values may be shown once.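 Briefly, cells in 96-well plates were exposed to five compound concentrations for 48 h, and endpoints were estimated by linear interpolation. Abbreviation: GI50, concentration required for 50% inhibition of growth. TGI denotes the concentration required for complete inhibition of growth.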
What was measured:
Assay in all cases: growth of human tumour cells (NCI), 48 h
A549 NSCLC = test system: A549 NSCLC
COLO 205 colon = test system: COLO 205 colon
HOP-62 NSCLC = test system: HOP-62 NSCLC
MALME-3M melanoma = test system: MALME-3M melanoma
NCI-H460 lung = test system: NCI-H460 lung
OVCAR-3 ovarian = test system: OVCAR-3 ovarian
OVCAR-5 ovarian = test system: OVCAR-5 ovarian
SF-268 CNS = test system: SF-268 CNS
SF-295 CNS = test system: SF-295 CNS
SF-539 CNS = test system: SF-539 CNS

Compound	TGI (A549 NSCLC) [µM]	TGI (COLO 205 colon)	TGI (HOP-62 NSCLC) [µM]	TGI (MALME-3M melanoma)	TGI (NCI-H460 lung)	TGI (OVCAR-3 ovarian) [µM]	TGI (OVCAR-5 ovarian) [µM]	TGI (SF-268 CNS) [µM]	TGI (SF-295 CNS)	TGI (SF-539 CNS) [µM]	GI50 (SF-539 CNS) [µM]	GI50 (HOP-62 NSCLC)	GI50 (MALME-3M melanoma)	GI50 (OVCAR-5 ovarian) [µM]	GI50 (SF-268 CNS) [µM]	GI50 (SF-295 CNS) [µM]
CCCCn1cc(C(=O)O)c(=O)c2c3sccc3ccc21	> 100	> 100 µM	> 100	> 100 µM	> 100 µM	> 100	> 100	> 100	> 100 µM	> 100						
O=C1c2ccccc2S(=O)(=O)c2ccccc21	> 100	> 100 µM	> 100	> 100 µM	> 100 µM	> 100	> 100	> 100	> 100 µM	> 100						
Cc1ncc([N+](=O)[O-])n1CCN=[N+]=[N-]	> 100	> 100 µM	> 100	> 100 µM	> 100 µM	> 100	> 100	> 100	> 100 µM	> 100						
CCOC(=O)CCC1(C(=O)OC)CCCC1=O (configuration not stated)	> 100	> 100 µM	> 100	> 100 µM	> 100 µM	> 100	> 100	> 100	> 100 µM	> 100						
Cc1ccc(Nc2nc(=O)[nH]c(=O)[nH]2)cc1N	> 100	> 100 µM	> 100	> 100 µM	> 100 µM	> 100	> 100	> 100	> 100 µM	> 100						
COc1cc(C(=O)Nc2nnc(S(N)(=O)=O)s2)cc(OC)c1OC	> 100	> 100 µM	> 100	> 100 µM	> 100 µM	> 100	> 100	> 100	> 100 µM	> 100						
CN(C)c1ccc(/C=C(\NC(=O)c2ccccc2)C(=O)Nc2ccccc2C(=O)NN2C(=O)CSC2c2ccc(N(C)C)cc2)cc1 (configuration not stated)	> 100	> 100 µM	> 100	> 100 µM	31.7 µM	> 100	> 100	> 100	> 100 µM	> 100						
c1ccc2c(c1)CCCc1cc3ccccc3nc1-2	> 100	> 100 µM	> 100	> 100 µM	> 100 µM	> 100	> 100	> 100	> 100 µM	> 100						
COc1cn2c(cc1=O)COc1ccc(-c3ccccc3)cc1-2	99.5	> 100 µM	> 100	> 84.1 µM	> 100 µM	98.8	> 100	> 100	> 100 µM	> 100	43.6					
c1ccc(C2=NN3CN(N2)c2ccccc2OCCCOc2ccccc23)cc1	> 100	> 100 µM	> 100	> 100 µM	> 100 µM	> 100	> 100	> 100	> 100 µM	> 100						
CC1=NN(C(=O)CC(=O)Nc2cccc(Cl)c2)C(=O)C1N=Nc1ccc(S(N)(=O)=O)cc1 (configuration not stated)	> 100	> 100 µM	> 100	> 100 µM	> 100 µM	> 100	> 100	> 100	> 100 µM	> 100						
O=C1c2ccccc2NC2C(O)c3ccccc3N12 (configuration not stated)	61.5	> 100 µM	> 100	> 100 µM	55.7 µM	> 100	> 100	> 100	> 100 µM	> 100						
CCCCN(CCCC)C(=NCc1ccccc1)NC#N	> 100	33 µM	55.5	87.4 µM	26.9 µM	35.3	81.7	60.3	35.6 µM	41.2						
COc1ccc(Cn2nc(OCc3ccccn3)c3cc([N+](=O)[O-])ccc32)cc1	> 100		> 100	> 100 µM	> 100 µM	> 100	> 100	> 100	> 100 µM	> 100						
O=S1(=O)NNC(=NCc2ccc(F)cc2)c2ccccc21	> 100	> 100 µM	> 100	> 100 µM	> 31.6 µM	> 100	> 100	> 100	> 100 µM	> 100						
Cc1cc(S(=O)(=O)Nc2n[nH]c(Nc3ccccc3)n2)c(S)cc1Cl	> 10	> 10 µM	> 10	> 10 µM	> 10 µM	> 10	> 10	> 10	> 10 µM	> 10						
Cc1cnc(Cl)nc1C(C#N)c1nc2ccccc2n1C (configuration not stated)	> 100	> 100 µM	> 100	> 100 µM	> 100 µM	> 100	> 100	> 100	> 100 µM	71.3						
OC(CC(c1ccccc1)c1ccc(Cl)cc1)c1ccc(Cl)cc1 (configuration not stated)	> 100	34.8 µM	91.4	79.1 µM	> 100 µM	81.6	62	> 100	92 µM	> 100						
O=c1[nH]c(=O)n(C2CC(O)C(CO)O2)cc1C#Cc1ccc(C(F)(F)F)cc1 (configuration not stated)	> 100	> 100 µM	> 100	> 100 µM	> 100 µM	> 100	> 100	> 100	> 100 µM	> 100						
COc1cc2c3c(n(CCCNCCO)c(=O)c2cc1OC)-c1cc2c(cc1C3=O)OCO2		2 µM and 5.42 µM		4.06 µM and 2 µM	0.23 µM and 0.0797 µM	5.3		0.448	1.29 µM and 4.27 µM	1.36		0.0127 µM and 0.0979 µM	0.252 µM and 0.143 µM	14.4	< 0.01	< 0.0188
O=C(Nc1cccc2nsnc12)c1cc2c(cc1Cl)Sc1nccn1S2(=O)=O	56.1	33.3 µM	4.37	> 100 µM	5.98 µM	3.47	> 91.6	20.4	28.2 µM	10						

Reference: PubChem BioAssay (NCI)
